Test results reported in PMC12592400, “A unique inhibitor conformation selectively targets the DNA polymerase PolC of Gram-positive priority pathogens” (Nature Communications, 2025).
“And” between values parts separate entries of the source, which are not always exact repeats. Equal entries are not always repeated.

What was measured:
[1] = system: E. faecium PolC^F1276L (exonuclease-inactivated); assay: Real-time DNA primer extension assay; format: biochemical, Enterococcus faecium; settings: versus wild-type PolC
Source text: (§1) The genes for PolC (locus_tag: MIBBHLJO_01574) and DnaE (locus_tag: MIBBHLJO_00911) from E. faecium ATCC 700221 were codon-optimized for expression in E. coli and synthesized in vector pET28b by Twist Bioscience (San Francisco, CA). Expression constructs for variant PolC proteins were created with QuikChange Site-Directed Mutagenesis (Agilent) with oligonucleotides listed in Supplementary Table 3. F1276L, F1276S, and A1281T were introduced to assess the effect of these mutations on inhibition by ACX compounds. Mutations D972A and D974A were introduced to inactivate the polymerase activity and mutations D431A and E433A were introduced to inactivate the exonuclease activity (Fig. 1d, Supplementary Fig. 1).
(§2) Polymerase activity was monitored in real-time[31],[32] with a 42-nt long 5’ carboxyfluorescein-labelled DNA oligonucleotide template strand (DNASP8_42) annealed to a 30-nt primer oligonucleotide (oMU014). Polymerase activity in this assay is monitored by measuring fluorescence quenching of the labelled DNA template as a result of primer extension by PolC (for details see Supplementary Fig. 1b, c). Both primers were HPLC purified. Primer extension assays were performed in Reaction Buffer (see Gel-based polymerase and exonuclease assays) supplemented with 0.5 mg/mL BSA, 0.05% Tween20 and 25 uM of each dNTP (SRB) in 384-well Black Round Bottom plates (Corning 4514). The polymerase was diluted in the SRB and incubated for at least 5 min in the presence of inhibitor or solvent, with a final solvent concentration of 1%. The reaction was initiated by the addition of an equal volume of DNA substrate in SRB as described below. Fluorescence emission data was collected with a BMG Labtech PHERAstar FSX reader for 30 min at room temperature.
(§3) Compounds were dispensed with an Echo acoustic liquid handler (Beckman Coulter). All compounds were dissolved to 1 mM and 10 mM stocks in 100% DMSO and transferred to Echo LDV or PP source plates (Labcyte, Inc., CA), then dispensed to 384-well plates with a Labcyte Echo550 or Echo650 acoustic dispenser at volumes of 2.5 to 100 nL per well. […] A Mantis microfluidic liquid dispenser (Formulatrix) was used to dispense 5 µL polymerase and 5 µL substrate DNA (individually diluted in SRB) per well. […] The final concentration of DNA was 70 nM.
(§4) Data were analysed and standard error of the means (SEM) determined in Prism 8.4.2 and 10.2.3 (GraphPad). Raw time-course polymerase activity was plotted against time, with SEM of triplicates determined. The rate of activity (represented by signal quenching) was determined during the first 8 min (linear stage) by calculating the slope of fluorescence intensity change (converted to a positive value) over time (in seconds). The slopes were then normalized to percentage activity (%); per ‘replicate range’, 100% activity was defined as polymerase activity in the absence of inhibitor (polymerase control), and 0% activity was determined in the absence of polymerase (DNA signal; negative control). The SEM was determined between ‘replicate ranges’. The IC50 was determined using the dose-response (inhibition) nonlinear regression ‘[Inhibitor] vs. response (three parameters)’ without constraints.

[2] = target: T1, E. faecium PolC^F1276S (exonuclease-inactivated) (Enterococcus faecium, UniProt A0A9X4B319, D429A/E431A/F1274S); assay: Real-time DNA primer extension assay; format: biochemical; settings: for rate of activity (slope of fluorescence intensity change over time): Fig. 4b source data, F1267S
T1 sequence (A0A9X4B319 1-1450 D429A/E431A/F1274S): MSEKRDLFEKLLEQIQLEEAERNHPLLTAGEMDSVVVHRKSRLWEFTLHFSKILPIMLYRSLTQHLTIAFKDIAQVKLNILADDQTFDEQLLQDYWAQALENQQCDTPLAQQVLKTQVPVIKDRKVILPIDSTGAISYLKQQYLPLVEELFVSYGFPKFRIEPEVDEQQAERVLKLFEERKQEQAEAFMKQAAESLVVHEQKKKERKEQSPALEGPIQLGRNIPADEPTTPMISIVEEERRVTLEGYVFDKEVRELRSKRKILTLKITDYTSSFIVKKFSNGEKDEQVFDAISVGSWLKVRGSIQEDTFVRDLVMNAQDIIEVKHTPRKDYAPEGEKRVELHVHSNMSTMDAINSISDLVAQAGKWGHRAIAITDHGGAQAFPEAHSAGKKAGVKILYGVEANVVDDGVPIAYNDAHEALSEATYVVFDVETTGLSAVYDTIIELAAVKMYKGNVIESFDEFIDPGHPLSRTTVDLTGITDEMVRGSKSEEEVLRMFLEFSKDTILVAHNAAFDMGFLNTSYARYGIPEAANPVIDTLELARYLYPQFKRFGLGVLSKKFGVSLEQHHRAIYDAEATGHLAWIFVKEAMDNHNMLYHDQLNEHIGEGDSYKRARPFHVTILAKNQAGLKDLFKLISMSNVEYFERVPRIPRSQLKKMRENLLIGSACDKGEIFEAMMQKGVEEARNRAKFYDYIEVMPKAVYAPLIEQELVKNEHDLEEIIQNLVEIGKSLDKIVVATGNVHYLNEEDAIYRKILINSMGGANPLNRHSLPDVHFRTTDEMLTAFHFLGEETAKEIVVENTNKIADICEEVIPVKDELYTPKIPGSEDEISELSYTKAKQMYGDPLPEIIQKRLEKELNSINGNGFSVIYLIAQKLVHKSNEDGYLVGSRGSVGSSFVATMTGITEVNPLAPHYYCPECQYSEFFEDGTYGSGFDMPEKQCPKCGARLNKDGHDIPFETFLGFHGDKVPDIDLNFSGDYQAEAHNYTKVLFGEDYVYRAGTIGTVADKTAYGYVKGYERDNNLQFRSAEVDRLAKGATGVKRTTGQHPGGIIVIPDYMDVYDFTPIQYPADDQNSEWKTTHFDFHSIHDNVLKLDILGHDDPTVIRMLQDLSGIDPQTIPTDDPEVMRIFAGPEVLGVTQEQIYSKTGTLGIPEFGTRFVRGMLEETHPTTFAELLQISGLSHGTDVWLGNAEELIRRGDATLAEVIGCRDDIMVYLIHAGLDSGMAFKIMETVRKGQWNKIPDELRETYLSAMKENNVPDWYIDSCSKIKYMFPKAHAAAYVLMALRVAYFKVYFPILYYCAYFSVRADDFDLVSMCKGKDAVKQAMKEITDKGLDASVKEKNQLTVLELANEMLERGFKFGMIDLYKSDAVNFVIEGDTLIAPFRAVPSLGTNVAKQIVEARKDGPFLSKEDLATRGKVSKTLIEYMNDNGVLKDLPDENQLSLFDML
Source text: as §1, §2, §3, §4

SMILES | increase of IC50 by the F1276L mutation [1] | IC50 [2] | rate of activity (slope of fluorescence intensity change over time) ([2]; inhibitor 1 uM) | rate of activity (slope of fluorescence intensity change over time) ([2]; inhibitor 1.75 uM) | rate of activity (slope of fluorescence intensity change over time) ([2]; inhibitor 2.5 uM) | rate of activity (slope of fluorescence intensity change over time) ([2]; inhibitor 4 uM) | rate of activity (slope of fluorescence intensity change over time) ([2]; inhibitor 5.75 uM) | rate of activity (slope of fluorescence intensity change over time) ([2]; inhibitor 8.8 uM) | rate of activity (slope of fluorescence intensity change over time) ([2]; inhibitor 20 uM) | rate of activity (slope of fluorescence intensity change over time) ([2]; inhibitor 30 uM) | rate of activity (slope of fluorescence intensity change over time) ([2]; inhibitor 45 uM) | rate of activity (slope of fluorescence intensity change over time) ([2]; inhibitor 67.5 uM) | rate of activity (slope of fluorescence intensity change over time) ([2]; inhibitor 100 uM) | rate of activity (slope of fluorescence intensity change over time) ([2]; inhibitor 225 uM) | rate of activity (slope of fluorescence intensity change over time) ([2]; inhibitor 150 uM)
O=c1[nH]c(NCc2ccc3c(c2)OC(F)(F)O3)nc2c(F)nn(CCO)c12 [ACX-801, 5-(((2,2-difluorobenzo[d][1,3]dioxol-5-yl)methyl)amino)-3-fluoro-1-(2-hydroxyethyl)-1,6-dihydro-7H-pyrazolo[4,3-d]pyrimidin-7-one] | > 19 fold | 101 ± 8.8 µM | 29.5 and 29.8 and 30.7 | 30.8 and 30.2 and 30.4 | 31.6 and 32.7 and 27.4 | 31.4 and 30.5 and 33.1 | 30.4 and 30.7 and 31.4 | 31.4 and 31.3 and 30.8 | 28.6 and 27.8 | 22.8 and 24.4 and 24.1 | 18.0 and 19.1 | 14.6 and 12.2 | 10.5 and 12.0 and 13.4 | 6.1 and 6.2 and 5.0 | –
O=c1[nH]c(NCc2ccc(Cl)c(Cl)c2)nc2ncn(CCN3CCOCC3)c12 [IBZ, N^2-(3,4-dichlorobenzyl)-7-(2-[1-morpholinyl]ethyl)guanine] | > 48 fold | > 225 µM | 29.0 and 29.8 and 31.7 | 30.0 and 28.9 and 29.5 | 26.9 and 26.5 and 27.3 | 31.2 and 29.8 and 29.5 | 28.2 | 25.6 and 30.1 and 32.4 | 30.9 and 27.1 and 31.2 | 29.0 and 27.4 | 31.6 and 29.8 and 28.0 | 29.0 and 32.1 and 30.5 | 28.6 and 28.2 | 28.0 and 22.8 | 27.2 and 24.9 and 25.9
